{
  "source": "patent US20140371244A1",
  "about": "“METHOD FOR TREATING PROSTATE CANCER BY USE OF PHARMACEUTICAL COMPOSITION CONTAINING A3 ADENOSINE RECEPTOR AGONIST” (priority 2009, published 2014)",
  "key": {"PC-3 cells": {"tested_on": "PC-3 cells", "assay": "Cell cycle analysis (FACS) in PC-3 cells", "format": "cell-based, human", "conditions": "40, 20 and 10 μM, 48 hours", "procedure": "Cells were treated with 40, 20 and 10 μM of thio-Cl-IB-MECA and cultured for 48 hours, and the cell cycle of the cells was analyzed by flow cytometer analysis (FACS). Specifically, cells were diluted with 10% FBS-containing medium to a density of 1.0×10^6 cells per 100 mm culture dish and cultured under the conditions of 37° C. and 5% CO2 for 24 hours, followed by washing twice with PBS. Thio-Cl-IB-MECA was diluted in 10% FBS-containing medium at required concentration, and then 10 ml of the culture medium prepared in the 100 mm culture dish was added thereto and cultured for a given time. The non-adherent cells and adherent cells in the cell medium were collected and washed twice with PBS, after which 500 μL of 100% cold methanol was added thereto and the cells were fixed at 4° C. The cells were washed twice with PBS and allowed to stand in RNase A-containing solution for 30 minutes, after which the cells were stained with propidium iodide (PI) buffer for 5 minutes. After removal of the PI buffer, the cells were transferred into a polystyrene round-bottom tube, and cell cycle analysis was performed by FACScalibur® flow cytometry."}, "[1]": {"tested_on": "Wnt signaling-related proteins", "assay": "PI-3 kinase / Wnt signaling proteins and β-catenin expression in LPS-stimulated RAW 264.7 cells", "format": "cell-based, mouse", "procedure": "A test was carried out to examine the effects of the inventive composition on the expressions of PI-3 kinase (which influences the NF-κB signaling pathway) and Wnt signaling-related proteins in RAW 264.7 cells. Specifically, RAW 264.7 cells were treated with the inventive composition (20 μM thio-Cl-IB-MECA), and after 30 minutes, were stimulated by LPS. At intervals of 5, 15, 30 and 60 minutes after culture, proteins were extracted from all the cells, and the effects of the inventive composition on the expressions of the proteins were measured in comparison with those in the control group treated with only LPS.\nIn order to examine the intranuclear movement of β-catenin and the accumulation of β-catenin in the cytoplasm, RAW 264.7 cells were treated with each of 5, 10 and 20 μM of the inventive composition (thio-Cl-IB-MECA), and after 30 minutes, the cells were stimulated by LPS. After 1 hour of culture, the cells were collected and separated into a nuclear extract and a cytosol extract. The expressions of β-catenin protein in the cytosol and nuclear portions were analyzed by Western blot, and the results of the analysis are shown in FIG. 7b. […] When no LPS stimulation is applied, β-catenin is degraded by phosphorylation."}, "HCT 116 cells": {"tested_on": "HCT 116 cells", "assay": "RT-PCR of cell cycle regulation-related genes in HCT 116 cells", "format": "cell-based, human", "conditions": "40 μM", "procedure": "A test was carried out to examine whether cell cycle regulation-related genes involved in the G1 phase are expressed.\nSpecifically, HCT 116 cells were diluted with 10% FBS-containing medium to a density of 1×10^6 cells per 100 mm culture dish and cultured under the conditions of 37° C. and 5% CO2 for 24 hours, followed by washing twice with PBS. Thio-Cl-IB-MECA was diluted in 10% FBS-containing medium to a concentration of 40 μM, and then 10 ml of the culture medium prepared in the 100 mm culture dish was added thereto and cultured for a given time. The non-adherent cells and adherent cells in the cell medium were collected and washed twice with PBS. Then, the cells were lysed with TRI reagent (TRIzol), after which CHCl3 was added thereto and RNA was extracted from the cells and precipitated using isopropyl alcohol. The RNA precipitate was washed with 70% ethanol and dried in air, after which it was suspended in nuclease-free water. The suspension was heated at 55° C. for 10 minutes and then at 70° C. for 5 minutes, so that the RNA was present as a single chain. The total RNA was quantified with NanoDrop, after which it was diluted to a concentration of 1 μg/μl and made into cDNA using avian myeloblastosis virus (AMV) reverse transcriptase and oligo (dT)15 primers. […]"}, "NF-κB": {"tested_on": "NF-κB", "assay": "NF-κB signaling (Western blot, EMSA) in LPS-stimulated RAW 264.7 cells", "format": "cell-based, mouse", "excerpt": "NF-κB is a transcription factor consisting of p65/p50 and is present in an inactivated state by binding to IκB in the cytoplasm, but when it is stimulated by, for example, LPS, it is activated by a series of processes, including the phosphorylation and degradation of IκB by IκB kinase (IKK). When NF-κB state becomes a free state, it moves into the nucleus and binds to the κB-binding site, thereby regulating the expression of genes, such as iNOS, TNF-α and IL-1β, which are involved in inflammatory reactions. Thus, the effect of the inventive composition on the NF-κB signaling system was tested by Western blot analysis and EMSA.\nEMSA was performed in order to examine whether NF-κB moves into the nucleus to bind to DNA."}, "[2]": {"conditions": "20 μM, LPS stimulation, 5, 15, 30, 60 min"}},
  "data": [
    {"compound": "CNC(=O)[C@H]1S[C@@H](n2cnc3c(NCc4cccc(I)c4)nc(Cl)nc32)[C@H](O)[C@@H]1O", "note": "[thio-Cl-IB-MECA, 2-chloro-N^6-(3-iodobenzyl)-4′-thioadenosine-5′-N-methyluronamide]", "values": [
      {"measurement": "G1 phase of cell cycle, PC-3", "setting": "PC-3 cells", "value": "an increase in the G1 phase appeared"},
      {"measurement": "expression of p-AKT", "setting": "[1]; [2]", "value": "also inhibited at 30 min and 60 min"},
      {"measurement": "expression of p-GSK 3α/β", "setting": "[1]; [2]", "value": "inhibited at 30 min and 60 min"},
      {"measurement": "expression of p-β-catenin", "setting": "[1]; 5, 10 and 20 μM, LPS, 1 hour", "value": "concentration-dependently inhibited"},
      {"measurement": "expressions of β-catenin in the cytosol and nuclear portions", "setting": "[1]; 5, 10 and 20 μM, LPS, 1 hour", "value": "concentration-dependently inhibited"},
      {"measurement": "gene expression of cyclin D1 and c-Myc", "setting": "HCT 116 cells", "value": "inhibited the expression"},
      {"measurement": "gene expression of p21 and p53", "setting": "HCT 116 cells", "value": "increased the expression"},
      {"measurement": "degradation of IκB protein", "setting": "NF-κB; 20 μM, 15 minutes after LPS", "value": "the degradation of IκB protein was inhibited"},
      {"measurement": "DNA binding of NF-κB", "setting": "NF-κB; EMSA", "value": "inhibited the DNA binding of NF-κB"},
      {"measurement": "protein bonding of p65 subunit of NF-κB", "setting": "NF-κB; EMSA", "value": "inhibited"}
    ]}
  ]
}
